Test results: patent US7192975B2, “Arylimidazole derivatives, preparation and therapeutic used thereof” (Societe de Conseils de Recherches Et d''Applications …, priority 2002, dated 2007)
Structures can show the parent of a compound that is named as a salt.

Structure (SMILES)	melting point
CCCCOC(=O)NCCc1nc(-c2ccc(-c3ccc(N=C(N)c4cccs4)cc3)cc2)c[nH]1 (as salt: hydrochloride) [Example 3, butyl 2-[4-(4′-{[(1Z)-amino(thien-2-yl)methylene]amino}-1,1′-biphenyl-4-yl-1H-imidazol-2-yl]ethylcarbamate hydrochloride]	97 to 98 °C
N=C(Nc1cccc(-c2c[nH]c(CCC3CCCCC3)n2)c1)c1cccs1 (as salt: hydrochloride) [Example 13, N-{3[2-(2-cyclohexlethyl)-1H-imidazol-4-yl]phenyl}thiophene-2-carboximidamide hydrochloride]	> 191 °C
NC(=N[N+](=O)[O-])Nc1ccc(-c2c[nH]c(CCC3CCCCC3)n2)cc1 (as salt: hydrochloride) [Example 19, N{4-[2-(2-cyclohexylethyl)-1H-imidazol-4-yl]phenyl}N″-nitroguanidine hydrochloride]	185 to 186 °C
Cl.NC(=Nc1ccc(-c2c[nH]c(CCNC3CCCCC3)n2)cc1)c1cccs1 [Example 5, N′-(4-{2-[2-(cyclohexylamino)ethyl]-1H-imidazol-4-yl}phenyl)thiophene-2-carboximidamide hydrochloride]	185 to 186 °C
CN(Cc1nc(-c2ccc(N=C(N)c3cccs3)cc2)c[nH]1)C1CCCCC1.Cl [Example 7, N′-[4-(2-{[cyclohexyl(methyl)amino]methyl}-1H-imidazol-4-yl)phenyl]thiophene-2-carboximidamide hydrochloride]	240 to 241 °C
Cl.NC(=Nc1ccc(-c2c[nH]c(CN(Cc3ccccc3)Cc3ccccc3)n2)cc1)c1cccs1 [Example 8, N′-(4{2-[(dibenzylamino)methyl]-1H-imidazol-4-yl}phenyl)thiophene-2-carboximidamide hydrochloride]	150 to 151 °C
CCCCCC(CCCCC)c1nc(-c2cccc(N=C(N)c3cccs3)c2)c[nH]1.Cl [Example 14, N′-{3-[2(1-pentylhexyl)-1H-imidazol-4-yl]phenyl}thiophene-2-carboximidamide hydrochloride]	163.3 °C
Cl.NC(=Nc1ccc(-c2c[nH]c(CCC3CCCCC3)n2)cc1)c1cccs1 [Example 15, N′-{4-[2-(2-cyclohexylethyl)-1H-imidazol-4-yl]phenyl}thiophene-2-carboximidamide hydrochloride]	196.2 °C
Cl.NC(=Nc1ccc(-c2c[nH]c(CNC3CCCCCC3)n2)cc1)c1cccs1 [Example 20, N′-(4-{2-[(cycloheptylamino)methyl]-1H-imidazol-4-yl}phenyl)thiophene-2-carboximidamide hydrochloride]	264 to 265 °C
Cl.NC(=Nc1ccc(-c2c[nH]c(CNC3CCC3)n2)cc1)c1cccs1 [Example 22, N′-(4-{2-[(cyclobutylamino)methyl]-1H-imidazol-4-yl}phenyl)thiophene-2-carboximidamide hydrochloride]	263 to 264 °C
Cl.NC(=Nc1ccc(-c2c[nH]c(CNCC(c3ccccc3)c3ccccc3)n2)cc1)c1cccs1 [Example 23, N′[4-(2-{[(2,2-diphenylethyl)amino]methyl}-1H-imidazol-4-yl)phenyl]thiophene-2-carboximidamide hydrochloride]	> 250 °C

More lines, now with the values ahead:

melting point	Structure (SMILES)
> 225 °C	NC(=Nc1cccc(-c2c[nH]c(CNC3CCCCC3)n2)c1)c1cccs1 (as salt: hydrochloride) [Example 6, N′-(3{2-[cyclohexylamino)methyl]-1H-imidazol-4-yl}phenyl)thiophene-2-carboximidamide hydrochloride]
210 to 212 °C	CCCCN(CCc1nc(-c2cccc(/N=C(/N)c3cccs3)c2)c[nH]1)C(=O)O.Cl [Example 2, butyl-2[4(3-{[(1E)-amino(thien-2yl)methylene]-amino}phenyl)-1H-imidazol-2-yl]ethylcarbamate hydrochloride]
228 to 229 °C	Cl.NC(=Nc1ccc(-c2c[nH]c(CNCc3ccccc3)n2)cc1)c1cccs1 [Example 9, N′-(4-{2-[(benzylamino)methyl]-1H-imidazol-4-yl}phenyl)thiophene-2-carboximidamide hydrochloride]
> 300 °C	Cl.NC(=Nc1cccc(-c2c[nH]c(C/N=C(/N)c3cccs3)n2)c1)c1cccs1 [Example 11, N′-{3[2-({[(1E)-amino(thien-2-yl)methylene]-amino}methyl)-1H-imidazol-4-yl]phenyl}thiophene-2-carboximidamide hydrochloride]
227 to 228 °C	Cl.NC(=Nc1ccc(-c2c[nH]c(C/N=C(/N)c3cccs3)n2)cc1)c1cccs1 [Example 12, N′-{4-[2-({[(1E)-amino(thien-2-yl)methylene]-amino}methyl)-1H-imidazol-4-yl]phenyl}thiophene-2-carboximidamide hydrochloride]
180 to 181 °C	Cl.NC(=Nc1cccc(-c2c[nH]c(CCCC3CCCCC3)n2)c1)c1cccs1 [Example 17, N′-{3-[2-(3-cyclohexylpropyl)-1H-imidazol-4-yl]phenyl}thiophene-2-carboximidamide hydrochloride]
> 250 °C	CNCc1nc(-c2ccc(N=C(N)c3cccs3)cc2)c[nH]1.Cl [Example 21, N′-(4-{2-[(methylamino)methyl]-1H-imidazol-4-yl}phenyl)thiophene-2-carboximidamide hydrochloride]
> 245 °C	Cl.NC(=Nc1cccc(-c2c[nH]c(CC/N=C(/N)c3cccs3)n2)c1)c1cccs1 [Example 24, N′-{3-[2-(2{[(1E)-amino(thien-2-yl)methylene]amino}ethyl)-1H-imidazol-4-yl]phenyl}thiophene-2-carboximidamide hydrochloride]
214 to 216 °C	CC(C)Cc1ccc(Cc2nc(-c3cccc(N=C(N)c4cccs4)c3)c[nH]2)cc1.Cl [Example 27, N′-{3-[2-(4-isobutylbenzyl)-1H-imidazol-4-yl]phenyl}thiophene-2-carboximidamide hydrochloride]
